From patent US20170217976A1, “6-(AMINO ACID)-MORPHINAN DERIVATIVES IN COMBINATION WITH PERMEATION […] FOR USE AS AN ORALLY, […], TRA[…] NASALLY AD[…]” (C[…], priority 2014, published 2017) come the findings set out here.

One experiment deals with T1, DOR (Rattus norvegicus, UniProt P33533).
T1 construct: from tissue
Nature of the experiment: Opioid receptor binding, DOR, rat brain membranes.

In a further experiment the target is T2, MOR (Rattus norvegicus, UniProt P33535).
T2 construct: from tissue
T2 sequence (P33535 whole entry): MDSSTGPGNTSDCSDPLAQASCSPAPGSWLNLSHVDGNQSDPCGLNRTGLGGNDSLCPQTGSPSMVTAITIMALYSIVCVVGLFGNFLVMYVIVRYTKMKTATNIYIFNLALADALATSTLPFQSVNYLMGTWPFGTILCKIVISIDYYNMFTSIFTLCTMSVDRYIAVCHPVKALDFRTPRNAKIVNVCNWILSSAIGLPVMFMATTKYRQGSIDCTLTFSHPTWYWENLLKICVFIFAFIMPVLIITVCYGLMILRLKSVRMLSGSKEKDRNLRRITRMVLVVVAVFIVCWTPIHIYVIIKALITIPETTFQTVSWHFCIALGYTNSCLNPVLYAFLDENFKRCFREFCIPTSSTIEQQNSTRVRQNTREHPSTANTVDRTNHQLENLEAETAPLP
The experiment in a line: Opioid receptor binding, MOR, rat brain membranes.

For another experiment, the target named is T3, KOR (Cavia porcellus, UniProt P41144).
T3 construct: from tissue
T3 sequence (P41144 whole entry): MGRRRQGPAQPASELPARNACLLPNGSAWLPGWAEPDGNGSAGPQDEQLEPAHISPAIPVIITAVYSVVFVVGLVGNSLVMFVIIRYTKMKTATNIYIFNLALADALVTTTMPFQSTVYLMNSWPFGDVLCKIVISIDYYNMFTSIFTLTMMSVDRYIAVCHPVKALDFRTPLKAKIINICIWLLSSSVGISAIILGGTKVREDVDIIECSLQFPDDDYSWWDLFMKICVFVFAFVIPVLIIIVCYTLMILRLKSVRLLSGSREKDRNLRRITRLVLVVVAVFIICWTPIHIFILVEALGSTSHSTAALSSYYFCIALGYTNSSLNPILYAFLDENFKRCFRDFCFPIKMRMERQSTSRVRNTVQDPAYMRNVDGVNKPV
Nature of the experiment: Opioid receptor binding, KOR, guinea pig brain membranes.

[1] abbreviates: Binding Ki (nM) DOR, in vitro binding assay, rat brain membranes.
Where [2] appears, read: Binding Ki DOR, Table 1-4, rat brain membranes.
Setting [3] is: Binding Ki (nM) MOR, in vitro binding assay, rat brain membranes.
Setting [4] is: Binding Ki MOR, Table 1-4, rat brain membranes.
Setting [5] is: Binding Ki (nM) KOR, in vitro binding assay, guinea pig brain membranes.
Where [6] appears, read: Binding Ki KOR, Table 1-4, guinea pig brain membranes.
Setting [7] is: Binding Ki DOR, Table 2-6, rat brain membranes.
The mark [8] stands for this setting: Binding Ki MOR, Table 2-6, rat brain membranes.
Setting [9] is: Binding Ki KOR, Table 2-6, guinea pig brain membranes.
[10] abbreviates: in vitro binding assay, rat brain membranes, read-out: Binding Ki (nM) DOR.
[11] abbreviates: in vitro binding assay, rat brain membranes, read-out: Binding Ki (nM) MOR.
The mark [12] stands for this setting: in vitro binding assay, guinea pig brain membranes, read-out: Binding Ki (nM) KOR.

Broadly, the Ki is the dissociation constant of the complex between target and ligand, obtained from inhibition or displacement.

Like-named read-outs stand apart in the source and are kept apart here.

T1 sequence (P33533 whole entry): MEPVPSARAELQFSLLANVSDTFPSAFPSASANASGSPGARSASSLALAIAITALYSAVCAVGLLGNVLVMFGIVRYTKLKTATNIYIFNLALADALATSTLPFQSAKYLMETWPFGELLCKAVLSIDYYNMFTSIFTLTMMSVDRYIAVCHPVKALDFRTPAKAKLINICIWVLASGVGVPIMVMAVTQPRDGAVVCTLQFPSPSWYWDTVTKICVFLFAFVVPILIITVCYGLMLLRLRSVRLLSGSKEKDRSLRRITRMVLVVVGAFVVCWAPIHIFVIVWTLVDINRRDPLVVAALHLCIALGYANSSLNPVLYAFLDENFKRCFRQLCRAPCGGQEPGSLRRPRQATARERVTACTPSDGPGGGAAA

In the case of `CC[C@H](C)[C@H](N[C@H]1CC[C@@]2(OC)[C@H]3Cc4ccc(O)c5c4[C@@]2(CCN3C)[C@H]1O5)C(=O)O` [Compound 42], the Ki at DOR (setting [1]) is 3.2 nM; at DOR (setting [2]), 3.2 nM; on MOR (setting [3]) it was 0.84 nM; on MOR (setting [4]), 0.84 nM; on KOR (setting [5]) it was 131 nM; at KOR (setting [6]), 131 nM.
Turning to `CO[C@@]12CC[C@@H](N[C@@H](C(=O)OC(C)(C)C)C(C)C)[C@@H]3Oc4c(O)ccc5c4[C@@]31CCN(CC1CC1)[C@@H]2C5` [71-tBu ester], the Ki turned out to be 0.24 nM on DOR (setting [7]), 1.94 nM at MOR (setting [8]) and 15.2 nM at KOR (setting [9]).
For `CO[C@@]12CC[C@H](N[C@@H](CCC(N)=O)C(=O)OC(C)(C)C)[C@@H]3Oc4c(O)ccc5c4[C@@]31CCN(C)[C@@H]2C5` [17-t-Bu ester], the values for the Ki at DOR (setting [1]), at MOR (setting [3]) and on KOR (setting [5]) were 0.18 nM, 0.18 nM and 8.97 nM, respectively.
Turning to `CCO[C@@]12CC[C@H](NCC(=O)O)[C@@H]3Oc4c(O)ccc5c4[C@@]31CCN(C)[C@@H]2C5` [Compound 5], the Ki at DOR (setting [1]) turned out to be 10.3 nM; on DOR (setting [2]), 10.3 nM; at MOR (setting [3]), 0.57 nM; on MOR (setting [4]) it was 0.57 nM; at KOR (setting [5]), 45.2 nM; at KOR (setting [6]), 45.2 nM.
As for `CN1CC[C@]23c4c5ccc(O)c4O[C@H]2[C@@H](N[C@@H](Cc2ccccc2)C(=O)O)CC[C@@]3(O)[C@H]1C5` [Compound 11], the Ki on DOR (setting [2]) came to 19 nM; on MOR (setting [4]), 2.3 nM; at KOR (setting [6]) it was 344 nM.
`CO[C@@]12CC[C@@H](N[C@@H](CC(N)=O)C(=O)O)[C@@H]3Oc4c(O)ccc5c4[C@@]31CCN(C)[C@@H]2C5` [Compound 27]: the Ki on DOR (setting [1]) is 2.25 nM; at DOR (setting [2]) it was 2.25 nM; on MOR (setting [3]) it was 1.26 nM; at MOR (setting [4]), 1.26 nM; on KOR (setting [5]) it was 103 nM; at KOR (setting [6]), 103 nM.
With `COC12CCC(NC(C(=O)O)C(C)C)C3Oc4c(O)ccc5c4C31CCN(C)C2C5` (single isomer, unassigned) [Compound 28], the Ki on DOR (setting [1]) turned out to be 3.91 nM; on DOR (setting [2]) it was 3.91 nM; at MOR (setting [3]), 3.16 nM; on MOR (setting [4]), 3.16 nM; at KOR (setting [5]) it was 325 nM; at KOR (setting [6]), 325 nM.
Take `CCCCCCCCOC(=O)CN[C@@H]1CC[C@@]2(OC)[C@H]3Cc4ccc(O)c5c4[C@@]2(CCN3C)[C@H]1O5` [HS731-nOc ester]: the values for the Ki at DOR (setting [10]), at MOR (setting [11]) and at KOR (setting [12]) were 2.71 nM, 2.56 nM and 3.87 nM, respectively.
With `CO[C@@]12CC[C@@H](NCC(=O)OC(C)(C)C)[C@@H]3Oc4c(O)ccc5c4[C@@]31CCN(CC1CC1)[C@@H]2C5` [62-Bu ester], the Ki on DOR (Table 2-6, rat brain membranes, read-out: Binding Ki DOR) is 0.96 nM; on MOR (Table 2-6, rat brain membranes, read-out: Binding Ki MOR) it was 2.66 nM; on KOR (Table 2-6, guinea pig brain membranes, read-out: Binding Ki KOR), 8.36 nM.
`CC[C@H](N[C@@H]1CC[C@@]2(OC)[C@H]3Cc4ccc(O)c5c4[C@@]2(CCN3CC2CC2)[C@H]1O5)C(=O)O` [Compound 79]: the Ki at DOR (Binding Ki DOR, Table 1-6, rat brain membranes) is 6.2 nM; at MOR (Binding Ki MOR, Table 1-6, rat brain membranes), 3.39 nM; at KOR (Binding Ki KOR, Table 1-6, guinea pig brain membranes) it was 19.1 nM.
`CO[C@@]12CC[C@H](N[C@@H](Cc3ccccc3)C(=O)O)[C@@H]3Oc4c(O)ccc5c4[C@@]31CCN(CC1CC1)[C@@H]2C5` [Compound 57]: the Ki on DOR (setting [7]) worked out at 1.17 nM; at MOR (setting [8]) it was 0.51 nM; at KOR (setting [9]), 4.21 nM.
Take `CO[C@@]12CC[C@H](N[C@@H](CC(C)C)C(=O)O)[C@@H]3Oc4c(O)ccc5c4[C@@]31CCN(C)[C@@H]2C5` [Compound 40]: the Ki at DOR (setting [1]) was determined as 2.34 nM; on DOR (setting [2]), 2.34 nM; at MOR (setting [3]), 0.68 nM; on MOR (setting [4]) it was 0.68 nM; at KOR (setting [5]), 141 nM; at KOR (setting [6]) it was 141 nM.
As for `CO[C@@]12CC[C@H](N[C@@H](Cc3ccc(O)cc3)C(=O)OC(C)(C)C)[C@@H]3Oc4c(O)ccc5c4[C@@]31CCN(C)[C@@H]2C5` [9-t-Bu ester], the Ki amounted to 0.42 nM at DOR (setting [10]), 0.59 nM on MOR (setting [3]) and 12.3 nM on KOR (setting [12]).
With `CCOC(=O)CNC1CCC2(OCCCc3ccccc3)C3Cc4ccc(O)c5c4C2(CCN3C)C1O5` (stereo not drawn) [8-Et ester], the Ki on DOR (setting [10]) stood at 0.21 nM; at MOR (setting [11]), 0.37 nM; on KOR (setting [12]), 0.41 nM.
For the compound `CO[C@@]12CC[C@H](N[C@@H](CCC(=O)OC(C)(C)C)C(=O)OC(C)(C)C)[C@@H]3Oc4c(O)ccc5c4[C@@]31CCN(C)[C@@H]2C5` [19-t-Bu ester], the Ki came to 0.32 nM at DOR (setting [10]), 0.27 nM on MOR (setting [11]) and 18.3 nM on KOR (setting [12]).
`CO[C@@]12CC[C@@H](NCC(=O)NCC(=O)O)[C@@H]3Oc4c(O)ccc5c4[C@@]31CCN(C)[C@@H]2C5` [Compound 25]: the Ki was 7.52 nM on DOR (setting [2]), 4.62 nM at MOR (setting [4]) and 203 nM at KOR (setting [6]).
